Source: article PMC8070284, “Pharmacokinetic Characterization of LW6, a Novel Hypoxia-Inducible Factor-1α (HIF-1α) Inhibitor in Mice” (Molecules, 2021)
Read-outs that look alike come from different tables or passages of the source.

Legend:
HIF-1α = details: cited from earlier work
[1] = In vivo plasma pharmacokinetics after a single i.v. or p.o. dose in male ICR mice; parameters: species or system mouse; details: for half-life / Vd: male, ICR; for half-life / Vd / MRT / clearance: iv; for Cmax / Tmax: po
From the text: The animal experiments conducted in this study were approved by the Institutional Animal Care and Use Committee of the Korea Research Institute of Bioscience and Biotechnology (Chung-buk, Korea; KRIBB-AEC-15005, 9 January 2015) and performed in compliance with the National Institutes of Health Guidelines for the care and use of laboratory animals and Korean national laws for ethical conduct in the care and use of animals. Specific pathogen-free (SPF) male ICR mice (8 weeks old) were purchased from Koatech Co. (Pyeongtaek, Kyonggi, Republic of Korea) and maintained in an SPF environment at a temperature of 22 ± 2 °C with a 12-h light/dark cycle and a relative humidity of 50 ± 10%. Food and water were given ad libitum. Animals were allowed to acclimatize to the testing facility for a week before being used in the study. Animal group for oral administration was fasted overnight before the study and fed again 4 h after dosing. Mice were given a single dose of test substance intravenously (i.v.) via tail vein injection or orally (p.o.) by a disposable syringe with an oral zonde. While LW6 was administered i.v. (5 mg/kg) or p.o. (5 mg/kg), APA was administered only i.v. (5 mg/kg). The solutions were prepared in dimethylacetamide/Cremophor EL/20% v/v 2-hydroxypropyl β-cyclodextrin in de-ionized water (1/1/3 v/v; i.v. or p.o. for LW6) or ethanol/20% v/v 2-hydroxypropyl β-cyclodextrin in de-ionized water (1/9 v/v; i.v. for APA) and administered at a dose volume of 5 mL/kg for both i.v. and p.o. Blood samples were collected via saphenous vein without the use of anesthesia as described in the earlier methodology study at the time points including 0, 0.25, 0.5, 0.75, 1, 2, 4, 6, 8, and 24 h after oral administration or 0, 0.083, 0.167, 0.25, 0.5, 1, 2, 4, 6, 8, and 24 h after intravenous administration. These samples were collected into Microvette® capillary tubes at predetermined time points. The blood samples were centrifuged under refrigeration at 12,000× g for 3 min and then kept frozen at −20 °C until analysis.
Plasma samples were prepared for analysis by the protein precipitation method. An aliquot of 15 µL from each plasma sample was transferred to a PCR tube (Axygen, Union City, CA, USA). Four volumes of acetonitrile containing the analytical internal standard (IS) 4-methylumbelliferone were added and the resulting mixture was vortexed for 10 min on a Multi-Tube vortexer (VWR International, West Chester, PA, USA), and sonicated for 30 min at room temperature. The tube was centrifuged at 12,000× g for 10 min and the supernatant was analyzed for the test substance. Sample analysis was performed by 3200 Q TRAP LC-MS/MS system (Applied Biosystems, Concord, ON, Canada) in a negative MRM mode. The analytical methods are described below.
Pharmacokinetic parameters were calculated by noncompartmental analysis of the plasma concentration-time profiles using Kinetica^TM 4.4.1 (Thermo Fisher Scientific, Inc., Woburn, MA, USA). The areas under the plasma concentration–time curves (AUC) were calculated by the linear-trapezoidal method. Total body clearance (CL) was calculated as follows: CL = Dose/AUC0–inf. Terminal elimination half-life (t1/2) was calculated by the following equation: t1/2 = 0.693/λz, where λz is the terminal disposition rate constant. Volume of distribution at steady state (Vss) was calculated as follows: Vss = CL × AUMC0–inf/AUC0–inf, where AUMC0–inf is the area under the first moment of the plasma concentration-time curve extrapolated to infinity. Oral bioavailability (F) was calculated using the following equation:(1) F=(AUCpo/Dosepo)/(AUCiv/Doseiv)×100
Fraction of dose converted to a systemically available metabolite was calculated by the following equation, where D is the dose of the parent, AUC(m) is the area under the curve of metabolite, and CL(m) is the systemic clearance of metabolite:(2) % of dose = AUC(m) ×CL(m)/D×parent mol. wt./metabolite mol. wt. ×100 […]

[2] = Stability in phosphate buffer at physiological pH; type: physicochemical; details: data not shown
[3] = Metabolic stability in pooled mouse liver microsomes; type: in vitro ADME
Experimental: LW6 (1 µM) was incubated with pooled mouse liver microsomes (0.5 mg/mL) in the absence or presence of NADPH (1 mM) to determine its conversion to APA. LW6 was degraded slowly in the absence or presence of NADPH, with 63% or 65% remaining after 60 min microsomal incubations, respectively (Figure 3A). […] APA, following its formation, gradually disappeared from the microsomal incubation media only in the presence of NAPDH (Figure 3A). To determine whether APA was metabolized by cytochrome P450 (CYP450), APA (1 µM) also was incubated with pooled male mouse liver microsomes (0.5 mg/mL) in the absence or presence of NADPH (1 mM).
All incubations were conducted in triplicate at 37 °C in eight-well tube strips placed in an 8 × 12 rack (VWR, Emeryville, CA). Incubation mixtures consisted of mouse liver microsomes (0.5 mg protein/mL), NADPH (1 mM), and LW6 (1 µM) or APA (1 µM) in 0.1 M potassium phosphate buffer (pH 7.4). The final incubation volume was 160 µL and the final acetonitrile content was 1%. Samples were preincubated for 5 min at 37 °C before adding LW6 or APA to initiate the reaction. The reaction was terminated at 0, 5, 15, 30, and 60 min by the addition of 320 µL of ice-cold acetonitrile containing the internal standard. Incubation mixtures were then centrifuged at 910× g for 10 min and the supernatant was analyzed by the LC-ESI/MS/MS method described below for quantitation of LW6 and APA.

Stability in mouse serum = type: in vitro ADME
Experimental: All incubations were conducted in triplicate at 37 °C in eight-well tube strips placed in an 8 × 12 rack (VWR, Emeryville, CA, USA) with 50 µL of mouse serum in each tube. LW6 (1 mM) dissolved in acetonitrile was added to a final concentration of […] (1% acetonitrile) to initiate the study. The reaction was terminated at 0, 1, 2, 4, and 6 h by adding 150 µL of ice-cold acetonitrile containing the internal standard. The eight-well cluster tube plate was centrifuged at 910× g for 10 min and the supernatant was analyzed by the LC-ESI/MS/MS method described below for quantitation of LW6 and APA.

in vitro = details: human
HCT116 xenograft = HCT116 xenograft model study; type: in vivo; details: data not shown
[4] = mouse, plasma, 5 mg/kg, plasma, analyte = label, after single i.v. dose of LW6 5 mg/kg, male ICR mice, read-out: t1/2 (terminal) (converted)
[5] = mouse, plasma, analyte = label, after single i.v. dose of LW6 5 mg/kg, male ICR mice
[6] = mouse, plasma, analyte = label, after single p.o. dose of LW6 5 mg/kg, male ICR mice
[7] = mouse, plasma, analyte = label, after single p.o. dose of LW6 5 mg/kg, male ICR mice, n = 5
[8] = plasma, analyte = label, after single i.v. dose of LW6 5 mg/kg, male ICR mice
[9] = plasma, analyte = label, after single p.o. dose of LW6 5 mg/kg, male ICR mice
[10] = Caco-2, pH 7.4, Typical apparent permeability coefficient (Papp) values
[11] = single i.v. dose of APA 5 mg/kg, male ICR mice, n = 5

Compound: COC(=O)c1ccc(O)c(NC(=O)COc2ccc(C34CC5CC(CC(C5)C3)C4)cc2)c1 [LW6]
- Accumulation of HIF-1α (HIF-1α): inhibited
- HIF-1α protein expression (HIF-1α; without affecting HIF-1β expression, via regulation of VHL): decreased
- Permeability across Caco-2 cell monolayers (in words) (Caco-2 cells): moderately permeable
- Time beyond which plasma level was below the quantitation limit ([1]; after i.v. LW6 5 mg/kg): 4 h
- Time beyond which plasma level was below the quantitation limit ([1]; after p.o. LW6 5 mg/kg): 1 h
- half-life [1, 4]: 0.6 ± 0.1 h
- Vd ([1]; mouse, plasma, 5 mg/kg, single i.v. dose of LW6 5 mg/kg, male ICR mice, read-out: Vss (volume of distribution at steady state)): 0.5 ± 0.1 L/kg
- MRT [1, 5]: 0.3 h
- clearance ([1]; mouse, plasma, single i.v. dose of LW6 5 mg/kg, male ICR mice, read-out: CL (systemic clearance) (converted)): 28.3 mL/min/kg
- bioavailability ([1]; mouse, plasma, oral, LW6 5 mg/kg p.o. vs 5 mg/kg i.v., calculated using AUC0–t, male ICR mice, read-out: F (oral bioavailability)): 1.7 ± 1.8%
- Cmax [1, 6]: 65.5 ± 47.3 ng/mL
- Tmax [1, 7]: 0.3 ± 0.1 h
- Decrease of plasma exposure of LW6 when administered orally ([1]; oral vs intravenous, 5 mg/kg): about 60 fold
- AUC0–inf [1, 8]: 2957.1 ± 215.4 ng/h/mL
- AUC0–t [1, 8]: 2949.3 ± 218.4 ng/h/mL
- AUC0–t [1, 9]: 49.5 ± 52.5 ng/h/mL
- Vz ([1]; single i.v. dose of LW6 5 mg/kg, male ICR mice): 1.6 ± 0.3 Lkg
- Stability in phosphate buffer [2]: stable
- LW6 remaining after 60 min microsomal incubation ([3]; 1 µM, 0.5 mg/mL microsomes, absence of NADPH): 63%
- LW6 remaining after 60 min microsomal incubation ([3]; 1 µM, 0.5 mg/mL microsomes, presence of NADPH (1 mM)): 65%
- t1/2 of conversion to APA in liver microsomes ([3]; 1 µM, 0.5 mg/mL mouse liver microsomes): > 1 h
- half-life at 1 µM ([3]; mouse, pooled mouse liver microsomes, pH 7.4, as stated in abstract, read-out: t1/2 of degradation in mouse liver microsomes): > 1 h
- half-life at 5 µM (Stability in mouse serum; ICR, mouse serum, 5 µM, up to 6 h, read-out: t1/2 of degradation in serum): > 6 h
- Conversion to APA in mouse serum (in words) (Stability in mouse serum; LW6 5 µM): converted slowly to APA
- Papp at 120 min, 5 µM (in vitro; Caco-2, pH 7.4, Papp): 2.1 ± 0.4 ×10⁻⁶ cm/s

Compound: CNC(=C[N+](=O)[O-])NCCSCc1ccc(CN(C)C)o1 [Ranitidine, ranitidine]
- Papp at 120 min, 5 µM (in vitro; Caco-2, pH 7.4, Papp): 0.8 ×10⁻⁶ cm/s
- Papp at 120 min, 5 µM (in vitro; [10]): < 2 ×10⁻⁶ cm/s

Compound: O=C(O)COc1ccc(C23CC4CC(CC(C4)C2)C3)cc1 [APA, (4-adamantan-1-yl-phenoxy)acetic acid]
- half-life [1, 4]: 2.7 ± 0.2 h
- Vd ([1]; mouse, plasma, 5 mg/kg, single i.v. dose of APA 5 mg/kg, male ICR mice, n = 5, read-out: Vss): 0.4 ± 0.1 L/kg
- Vd ([1]; mouse, plasma, 5 mg/kg, single i.v. dose of APA 5 mg/kg, male ICR mice, n = 5, read-out: Vz): 0.5 ± 0.2 L/kg
- half-life ([1]; mouse, plasma, 5 mg/kg, single i.v. dose of APA 5 mg/kg, male ICR mice, n = 5, read-out: t1/2 (converted)): 2.4 ± 0.4 h
- MRT [1, 5]: 3.6 ± 0.2 h
- clearance ([1]; mouse, plasma, single i.v. dose of APA 5 mg/kg, male ICR mice, n = 5, read-out: CL (converted)): 1.67 mL/min/kg
- Cmax [1, 6]: 4240 ± 1260 ng/mL
- Tmax [1, 7]: 0.7 ± 0.1 h
- AUC0–inf [1, 8]: 17,759.9 ± 3194.1 ng/hr/mL
- AUC0–t [1, 8]: 17,731.4 ± 3190.5 ng/hr/mL
- AUC0–inf [1, 9]: 14,744.8 ± 5517.4 ng/hr/mL
- AUC0–t [1, 9]: 14,615.3 ± 5507.8 ng/hr/mL
- AUC0–inf [1, 11]: 39,624.7 ± 9502.30 ng/hr/mL
- AUC0–t [1, 11]: 37,703.8 ± 10,162.9 ng/hr/mL
- CL [1, 11]: 1.7 ± 0 mL/min/kg
- Tumor growth inhibition relative to the control group (HCT116 xenograft): up to 43.3%
- APA depletion in mouse liver microsomes (in words) ([3]; APA 1 µM, 0.5 mg/mL microsomes, presence of NADPH (1 mM)): progressively decreased

Compound: COCCc1ccc(OCC(O)CNC(C)C)cc1 (stereo not shown) [Metoprolol, metoprolol]
- Papp at 120 min, 5 µM (in vitro; Caco-2, pH 7.4, Papp): 35.3 ± 0.6 ×10⁻⁶ cm/s
- Papp at 120 min, 5 µM (in vitro; [10]): > 25 ×10⁻⁶ cm/s
